Test results from patent US9896435B2, “N-pyrrolidinyl,N′-pyrazolyl-urea, thiourea, guanidine and cyanoguanidine compounds as TrkA kinase inhibitors” (Array BioPharma Inc., priority 2012, dated 2018).

Columns and labels:
[1] = target: His-tagged recombinant human TrkA (Homo sapiens (Human), UniProt P04629); assay: TrkA LanthaScreen Eu Kinase Binding Assay; settings: averaged IC50; LanthaScreen binding assay of Example A; read-out: TrkA Enzyme IC50
Experimental: TrkA binding activity was determined in a TrkA LanthaScreen™ Eu Kinase Binding Assay. 5 nM His-tagged recombinant human TrkA (6HIS tagged cytoplasmic domain from Invitrogen, Catalog No. PV3144) was incubated with 4 nM Alexa-Fluor® Tracer 236 (Invitrogen Cat. No. PV5592), 2 nM biotinylated anti-His (Invitrogen Cat. No. PV6090), and 2 nM europium-labeled Streptavidin (Invitrogen Cat. No. PV5899), in buffer (25 mM MOPS, pH 7.5, 5 mM MgCl2, 0.005% Triton X-100). Three fold serial dilutions of compounds of the invention in DMSO were added to a final percentage of 2% DMSO. After 60-minute incubation at 22° C., the reaction was measured using the EnVision mutlimode plate reader (PerkinElmer) via TR-FRET dual wavelength detection at […]. The percent of control was calculated using a ratiometric emission factor. The IC50 values were determined by fitting a four parameter model to the percent of control data.
Table A provides averaged IC50 values for compounds of the invention when tested in the assay of Example A, where A represents an averaged IC50 value<100 nM.

Yes = Yes (Homo sapiens (Human), UniProt P07947); assay: KinaseProfiler off-target kinase profiling; assay type: biochemical; settings: 10 μM, ATP near Km
Summary of the method: (§1)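 10 μM cpd; ATP ≈ Km per kinase; n=2; data as POC, mean of duplicates.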

MAP4K2 = MAP4K2 (Homo sapiens (Human), UniProt Q12851); assay: KinaseProfiler off-target kinase profiling; assay type: biochemical; settings: 10 μM, ATP near Km
Summary of the method: as §1

Syk = Syk (Homo sapiens (Human), UniProt P43405); assay: KinaseProfiler off-target kinase profiling; assay type: biochemical; settings: 10 μM, ATP near Km
Summary of the method: as §1

FGFR1 = FGFR1 (Homo sapiens (Human), UniProt P11362); assay: KinaseProfiler off-target kinase profiling; assay type: biochemical; settings: 10 μM, ATP near Km
Summary of the method: as §1

TAK1 = TAK1 (Homo sapiens (Human), UniProt O43318); assay: KinaseProfiler off-target kinase profiling; assay type: biochemical; settings: 10 μM, ATP near Km
Summary of the method: as §1

GSK3beta = GSK3beta (Homo sapiens (Human), UniProt P49841); assay: KinaseProfiler off-target kinase profiling; assay type: biochemical; settings: 10 μM, ATP near Km
Sequence of GSK3beta (P49841 whole entry): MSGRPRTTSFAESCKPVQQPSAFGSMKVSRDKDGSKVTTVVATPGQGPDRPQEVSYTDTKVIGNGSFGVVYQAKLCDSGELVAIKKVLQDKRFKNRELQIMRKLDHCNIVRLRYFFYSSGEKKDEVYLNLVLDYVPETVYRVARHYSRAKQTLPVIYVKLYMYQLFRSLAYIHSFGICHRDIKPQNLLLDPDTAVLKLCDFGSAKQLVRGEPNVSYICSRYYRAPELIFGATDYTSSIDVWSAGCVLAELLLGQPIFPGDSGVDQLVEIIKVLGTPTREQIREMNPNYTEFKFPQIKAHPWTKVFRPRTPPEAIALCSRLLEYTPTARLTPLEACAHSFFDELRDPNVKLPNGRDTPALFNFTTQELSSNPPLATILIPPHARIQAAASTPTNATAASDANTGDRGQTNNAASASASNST
Summary of the method: as §1

Rsk4 = Rsk4 (Homo sapiens (Human), UniProt Q9UK32); assay: KinaseProfiler off-target kinase profiling; assay type: biochemical; settings: 10 μM, ATP near Km
Summary of the method: as §1

JNK2alpha2 = JNK2alpha2 (Homo sapiens (Human), UniProt P45984); assay: KinaseProfiler off-target kinase profiling; assay type: biochemical; settings: 10 μM, ATP near Km
Summary of the method: as §1

TEC Activated = TEC Activated (Homo sapiens (Human), UniProt P42680); assay: KinaseProfiler off-target kinase profiling; assay type: biochemical; settings: 10 μM, ATP near Km
Summary of the method: as §1

GSK3alpha = GSK3alpha (Homo sapiens (Human), UniProt P49840); assay: KinaseProfiler off-target kinase profiling; assay type: biochemical; settings: 10 μM, ATP near Km
Sequence of GSK3alpha (P49840 whole entry): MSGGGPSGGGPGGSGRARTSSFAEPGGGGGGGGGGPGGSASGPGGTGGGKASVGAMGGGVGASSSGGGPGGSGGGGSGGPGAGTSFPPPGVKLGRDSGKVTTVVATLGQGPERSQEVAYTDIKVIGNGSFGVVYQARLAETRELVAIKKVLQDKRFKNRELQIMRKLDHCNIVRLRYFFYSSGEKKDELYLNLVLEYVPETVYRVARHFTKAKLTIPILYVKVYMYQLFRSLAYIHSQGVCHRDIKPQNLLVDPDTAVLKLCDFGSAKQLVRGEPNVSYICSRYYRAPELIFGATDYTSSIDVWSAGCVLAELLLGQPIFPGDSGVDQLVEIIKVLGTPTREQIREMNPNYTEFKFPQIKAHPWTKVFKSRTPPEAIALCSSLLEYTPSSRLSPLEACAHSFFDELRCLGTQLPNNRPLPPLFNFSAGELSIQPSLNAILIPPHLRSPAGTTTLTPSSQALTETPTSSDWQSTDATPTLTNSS
Summary of the method: as §1

BTK = BTK (Homo sapiens (Human), UniProt Q06187); assay: KinaseProfiler off-target kinase profiling; assay type: biochemical; settings: 10 μM, ATP near Km
Summary of the method: as §1

CDK2/cyclinE = CDK2/cyclinE (Homo sapiens (Human), UniProt P24941); assay: KinaseProfiler off-target kinase profiling; assay type: biochemical; settings: 10 μM, ATP near Km
Summary of the method: as §1

BrSK1 = BrSK1 (Homo sapiens (Human), UniProt Q8TDC3); assay: KinaseProfiler off-target kinase profiling; assay type: biochemical; settings: 10 μM, ATP near Km
Summary of the method: as §1

Pim-2 = Pim-2 (Homo sapiens (Human), UniProt Q9P1W9); assay: KinaseProfiler off-target kinase profiling; assay type: biochemical; settings: 10 μM, ATP near Km
Summary of the method: as §1

LIMK1 = LIMK1 (Homo sapiens (Human), UniProt P53667); assay: KinaseProfiler off-target kinase profiling; assay type: biochemical; settings: 10 μM, ATP near Km
Sequence of LIMK1 (P53667 whole entry): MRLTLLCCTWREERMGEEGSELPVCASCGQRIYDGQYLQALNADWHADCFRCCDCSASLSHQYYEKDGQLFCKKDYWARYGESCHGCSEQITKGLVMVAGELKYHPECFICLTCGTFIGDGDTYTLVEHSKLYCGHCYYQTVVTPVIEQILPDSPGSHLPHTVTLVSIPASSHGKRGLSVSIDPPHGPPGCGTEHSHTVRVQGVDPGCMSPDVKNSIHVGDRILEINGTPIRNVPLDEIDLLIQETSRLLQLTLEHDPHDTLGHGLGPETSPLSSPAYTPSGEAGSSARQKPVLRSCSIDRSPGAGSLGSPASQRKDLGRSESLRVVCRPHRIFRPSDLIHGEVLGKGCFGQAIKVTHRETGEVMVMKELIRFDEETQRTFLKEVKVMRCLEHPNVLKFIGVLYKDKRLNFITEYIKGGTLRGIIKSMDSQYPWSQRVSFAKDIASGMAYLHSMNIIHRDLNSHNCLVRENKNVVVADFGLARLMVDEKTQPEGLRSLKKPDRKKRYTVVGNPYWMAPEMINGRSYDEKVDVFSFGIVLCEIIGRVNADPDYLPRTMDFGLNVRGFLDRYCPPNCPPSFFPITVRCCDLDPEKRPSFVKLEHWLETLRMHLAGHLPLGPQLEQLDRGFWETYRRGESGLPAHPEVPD
Summary of the method: as §1

mTOR = mTOR (Homo sapiens (Human), UniProt P42345); assay: KinaseProfiler off-target kinase profiling; assay type: biochemical; settings: 10 μM, ATP near Km
Summary of the method: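 Kinase panel screen, compound fixed at 10 μM; ATP near Km for every kinase. Duplicates averaged, results given relative to control (POC).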

CAMK2d = CAMK2d (Homo sapiens (Human), UniProt Q13557); assay: KinaseProfiler off-target kinase profiling; assay type: biochemical; settings: 10 μM, ATP near Km
Summary of the method: as §1

CDK5/p25 = CDK5/p25 (Homo sapiens (Human), UniProt Q00535); assay: KinaseProfiler off-target kinase profiling; assay type: biochemical; settings: 10 μM, ATP near Km
Summary of the method: as §1

Txk = Txk (Homo sapiens (Human), UniProt P42681); assay: KinaseProfiler off-target kinase profiling; assay type: biochemical; settings: 10 μM, ATP near Km
Summary of the method: as §1

PAK6 = PAK6 (Homo sapiens (Human), UniProt Q9NQU5); assay: KinaseProfiler off-target kinase profiling; assay type: biochemical; settings: 10 μM, ATP near Km
Summary of the method: as §1

p38alpha = p38alpha (Homo sapiens (Human), UniProt Q16539); assay: KinaseProfiler off-target kinase profiling; assay type: biochemical; settings: 10 μM, ATP near Km
Sequence of p38alpha (Q16539 whole entry): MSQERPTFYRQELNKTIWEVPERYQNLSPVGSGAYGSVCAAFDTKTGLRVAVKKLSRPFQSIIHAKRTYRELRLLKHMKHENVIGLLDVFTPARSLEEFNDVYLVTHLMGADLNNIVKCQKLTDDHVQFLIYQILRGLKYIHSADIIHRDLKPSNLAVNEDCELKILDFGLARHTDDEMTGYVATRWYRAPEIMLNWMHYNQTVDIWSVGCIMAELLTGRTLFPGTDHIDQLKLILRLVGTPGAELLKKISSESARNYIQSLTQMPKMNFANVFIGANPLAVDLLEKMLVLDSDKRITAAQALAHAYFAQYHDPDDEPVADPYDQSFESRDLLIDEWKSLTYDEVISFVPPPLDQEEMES
Summary of the method: as §1

DMPK = DMPK (Homo sapiens (Human), UniProt Q09013); assay: KinaseProfiler off-target kinase profiling; assay type: biochemical; settings: 10 μM, ATP near Km
Summary of the method: as §1

PKCbetaII = PKCbetaII (Homo sapiens (Human), UniProt P05771); assay: KinaseProfiler off-target kinase profiling; assay type: biochemical; settings: 10 μM, ATP near Km
Summary of the method: as §1

CAMK4 = CAMK4 (Homo sapiens (Human), UniProt Q16566); assay: KinaseProfiler off-target kinase profiling; assay type: biochemical; settings: 10 μM, ATP near Km
Sequence of CAMK4 (Q16566 whole entry): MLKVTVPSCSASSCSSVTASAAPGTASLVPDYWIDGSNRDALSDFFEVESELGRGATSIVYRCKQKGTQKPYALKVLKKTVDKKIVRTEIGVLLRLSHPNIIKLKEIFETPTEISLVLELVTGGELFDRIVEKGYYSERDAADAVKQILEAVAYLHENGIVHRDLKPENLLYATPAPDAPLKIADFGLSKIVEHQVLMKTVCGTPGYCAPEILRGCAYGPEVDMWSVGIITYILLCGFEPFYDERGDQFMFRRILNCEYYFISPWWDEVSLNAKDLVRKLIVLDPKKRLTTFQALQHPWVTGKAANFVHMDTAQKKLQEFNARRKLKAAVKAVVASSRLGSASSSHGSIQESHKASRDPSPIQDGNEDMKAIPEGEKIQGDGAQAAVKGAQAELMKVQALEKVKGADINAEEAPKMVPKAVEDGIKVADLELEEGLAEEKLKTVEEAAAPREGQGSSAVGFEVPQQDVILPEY
Summary of the method: as §1

Plk3 = Plk3 (Homo sapiens (Human), UniProt Q9H4B4); assay: KinaseProfiler off-target kinase profiling; assay type: biochemical; settings: 10 μM, ATP near Km
Summary of the method: as §1

IR = IR (Homo sapiens (Human), UniProt P06213); assay: KinaseProfiler off-target kinase profiling; assay type: biochemical; settings: 10 μM, ATP near Km
Sequence of IR (P06213 28-1382): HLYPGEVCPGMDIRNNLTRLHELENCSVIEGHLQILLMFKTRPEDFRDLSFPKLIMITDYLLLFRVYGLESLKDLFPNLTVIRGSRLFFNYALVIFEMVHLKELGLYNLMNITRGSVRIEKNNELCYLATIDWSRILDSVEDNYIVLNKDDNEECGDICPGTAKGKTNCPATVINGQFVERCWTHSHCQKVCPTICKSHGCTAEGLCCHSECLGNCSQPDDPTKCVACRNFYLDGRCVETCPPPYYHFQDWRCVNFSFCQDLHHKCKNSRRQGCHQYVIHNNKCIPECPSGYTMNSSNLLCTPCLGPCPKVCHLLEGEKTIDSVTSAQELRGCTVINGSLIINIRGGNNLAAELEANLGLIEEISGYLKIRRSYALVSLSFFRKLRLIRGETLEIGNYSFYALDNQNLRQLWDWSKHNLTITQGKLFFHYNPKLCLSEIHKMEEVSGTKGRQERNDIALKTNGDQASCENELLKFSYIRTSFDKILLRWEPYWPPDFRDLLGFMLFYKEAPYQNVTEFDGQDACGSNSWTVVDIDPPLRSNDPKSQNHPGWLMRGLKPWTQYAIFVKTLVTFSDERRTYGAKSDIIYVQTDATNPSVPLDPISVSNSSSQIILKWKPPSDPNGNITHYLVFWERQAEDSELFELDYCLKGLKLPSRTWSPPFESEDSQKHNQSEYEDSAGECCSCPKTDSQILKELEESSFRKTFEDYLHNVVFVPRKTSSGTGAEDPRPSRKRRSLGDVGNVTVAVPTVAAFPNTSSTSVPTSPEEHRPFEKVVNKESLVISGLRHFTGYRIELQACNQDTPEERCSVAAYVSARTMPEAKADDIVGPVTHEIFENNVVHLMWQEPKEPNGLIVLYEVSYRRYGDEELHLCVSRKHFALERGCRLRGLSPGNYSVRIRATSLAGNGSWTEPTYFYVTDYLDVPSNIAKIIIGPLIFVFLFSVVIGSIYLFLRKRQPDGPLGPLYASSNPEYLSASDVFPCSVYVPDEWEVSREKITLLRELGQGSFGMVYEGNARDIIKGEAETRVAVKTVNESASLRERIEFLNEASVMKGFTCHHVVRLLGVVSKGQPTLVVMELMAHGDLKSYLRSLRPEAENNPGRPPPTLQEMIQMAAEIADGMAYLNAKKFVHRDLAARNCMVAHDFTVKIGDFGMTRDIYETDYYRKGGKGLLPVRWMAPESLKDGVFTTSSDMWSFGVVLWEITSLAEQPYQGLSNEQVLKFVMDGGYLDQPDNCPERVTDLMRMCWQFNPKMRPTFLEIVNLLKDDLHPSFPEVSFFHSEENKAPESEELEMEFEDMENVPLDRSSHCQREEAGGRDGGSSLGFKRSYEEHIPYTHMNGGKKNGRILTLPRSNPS
Summary of the method: as §1

CLK2 = CLK2 (Homo sapiens (Human), UniProt P49760); assay: KinaseProfiler off-target kinase profiling; assay type: biochemical; settings: 10 μM, ATP near Km
Summary of the method: as §1

Rsk1 = Rsk1 (Homo sapiens (Human), UniProt Q15418); assay: KinaseProfiler off-target kinase profiling; assay type: biochemical; settings: 10 μM, ATP near Km
Summary of the method: as §1

HIPK2 = HIPK2 (Homo sapiens (Human), UniProt Q9H2X6); assay: KinaseProfiler off-target kinase profiling; assay type: biochemical; settings: 10 μM, ATP near Km
Sequence of HIPK2 (Q9H2X6 whole entry): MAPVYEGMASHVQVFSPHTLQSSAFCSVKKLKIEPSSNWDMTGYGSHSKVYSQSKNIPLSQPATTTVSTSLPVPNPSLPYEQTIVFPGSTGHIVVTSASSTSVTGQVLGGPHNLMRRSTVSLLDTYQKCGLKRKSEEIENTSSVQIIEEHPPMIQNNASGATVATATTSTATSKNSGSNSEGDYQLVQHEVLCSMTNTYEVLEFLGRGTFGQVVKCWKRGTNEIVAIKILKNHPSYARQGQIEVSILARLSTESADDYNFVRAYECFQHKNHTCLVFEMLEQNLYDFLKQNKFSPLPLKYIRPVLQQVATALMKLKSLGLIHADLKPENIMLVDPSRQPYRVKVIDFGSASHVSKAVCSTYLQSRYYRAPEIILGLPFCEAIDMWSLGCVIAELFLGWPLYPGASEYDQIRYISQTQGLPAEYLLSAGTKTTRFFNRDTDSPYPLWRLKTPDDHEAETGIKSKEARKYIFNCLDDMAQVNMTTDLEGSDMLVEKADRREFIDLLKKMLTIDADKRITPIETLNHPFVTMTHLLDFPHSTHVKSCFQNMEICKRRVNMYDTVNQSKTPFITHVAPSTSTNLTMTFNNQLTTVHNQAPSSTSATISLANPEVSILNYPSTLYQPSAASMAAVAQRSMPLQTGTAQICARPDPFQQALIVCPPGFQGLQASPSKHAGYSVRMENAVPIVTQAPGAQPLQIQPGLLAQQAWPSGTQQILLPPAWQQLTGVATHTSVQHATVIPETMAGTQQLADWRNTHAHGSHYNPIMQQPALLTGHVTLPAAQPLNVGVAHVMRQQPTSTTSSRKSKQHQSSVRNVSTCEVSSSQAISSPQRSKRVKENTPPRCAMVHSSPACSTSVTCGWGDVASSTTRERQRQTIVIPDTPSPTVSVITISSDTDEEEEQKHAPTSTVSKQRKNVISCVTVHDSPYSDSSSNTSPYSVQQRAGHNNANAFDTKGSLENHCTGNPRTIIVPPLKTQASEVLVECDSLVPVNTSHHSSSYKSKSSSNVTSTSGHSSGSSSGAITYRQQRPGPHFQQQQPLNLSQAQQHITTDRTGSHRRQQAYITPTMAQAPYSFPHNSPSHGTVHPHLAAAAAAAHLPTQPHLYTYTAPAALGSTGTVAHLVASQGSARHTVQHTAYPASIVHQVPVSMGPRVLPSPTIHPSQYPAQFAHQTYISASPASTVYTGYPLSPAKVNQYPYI
Summary of the method: as §1

CK1_y = assay: KinaseProfiler off-target kinase profiling; assay type: biochemical; settings: 10 μM, ATP near Km
Summary of the method: as §1

CSK = CSK (Homo sapiens (Human), UniProt P41240); assay: KinaseProfiler off-target kinase profiling; assay type: biochemical; settings: 10 μM, ATP near Km
Summary of the method: as §1

IC50 [1] [µM] | Avg POC (Yes) [POC] | Avg POC (MAP4K2) [POC] | Avg POC (Syk) [POC] | Avg POC (FGFR1) [POC] | Avg POC (TAK1) [POC] | Avg POC (GSK3beta) [POC] | Avg POC (Rsk4) [POC] | Avg POC (JNK2alpha2) [POC] | Avg POC (TEC Activated) [POC] | Avg POC (GSK3alpha) [POC] | Avg POC (BTK) [POC] | Avg POC (CDK2/cyclinE) [POC] | Avg POC (BrSK1) [POC] | Avg POC (Pim-2) [POC] | Avg POC (LIMK1) [POC] | Avg POC (mTOR) [POC] | Avg POC (CAMK2d) [POC] | Avg POC (CDK5/p25) [POC] | Avg POC (Txk) [POC] | Structure (SMILES) | further results
< 0.1 | 104 | 105.5 | 86 | 106.5 | 93 | 108 | 136.5 | 100 | 107 | 94 | 109 | 103 | 104 | 86.5 | 100 | 108.5 | 91.5 | 104 | 99.5 | COCCN1C[C@@H](NC(=O)Nc2c(C)c(-c3ccnc(C)c3)nn2-c2ccccc2)[C@H](c2ccc(F)c(F)c2)C1 [Example 2, 1-((3S,4R)-4-(3,4-difluorophenyl)-1-(2-methoxyethyl)pyrrolidin-3-yl)-3-(4-methyl-3-(2-methylpyridin-4-yl)-1-phenyl-1H-pyrazol-5-yl)urea] | Avg POC (PAK6): 106 POC; Avg POC (p38alpha): 112 POC; Avg POC (DMPK): 98.5 POC; Avg POC (PKCbetaII): 101.5 POC; Avg POC (CAMK4): 97.5 POC; Avg POC (Plk3): 101 POC; Avg POC (IR): 74.5 POC; Avg POC (CLK2): 125 POC; Avg POC (Rsk1): 111 POC; Avg POC (HIPK2): 95 POC; Avg POC (CK1_y): 103 POC; Avg POC (CSK): 113 POC
< 0.1 | 55.5 | 99.5 | 88 | 101.5 | 88 | 114.5 | 113.5 | 97 | 83.5 | 101.5 | 97.5 | 98.5 | 94 | 103.5 | 98 | 102.5 | 105.5 | 99 | 98.5 | COCCN1C[C@@H](NC(=O)Nc2c(C)c(-c3cnc(C)nc3)nn2-c2ccccc2)[C@H](c2cc(F)cc(F)c2)C1 [Example 14, 1-((3S,4R)-4-(3,5-difluorophenyl)-1-(2-methoxyethyl)pyrrolidin-3-yl)-3-(4-methyl-3-(2-methylpyrimidin-5-yl)-1-phenyl-1H-pyrazol-5-yl)urea] | Avg POC (PAK6): 102 POC; Avg POC (p38alpha): 101 POC; Avg POC (DMPK): 105 POC; Avg POC (PKCbetaII): 92 POC; Avg POC (CAMK4): 83.5 POC; Avg POC (Plk3): 93.5 POC; Avg POC (IR): 84 POC; Avg POC (CLK2): 111.5 POC; Avg POC (Rsk1): 111.5 POC; Avg POC (HIPK2): 99 POC; Avg POC (CK1_y): 97.5 POC; Avg POC (CSK): 103 POC
